{"source": "patent US4179441A", "about": "“Fungidal and herbicidal 2-substituted-3-oxa-3aλ^4, 4-dithia-6-halo-1,5-diazapentalene” (Chevron Research Company, priority 1977, dated 1979)", "data": [{"tested_on": "Phytophthora infestans", "test": "whole plant or invertebrate", "assay_type": "in vivo", "conditions": "in Solanum lycopersicum, 168 h, read-out: Tomato Late Blight % Control", "units": {"pest or weed control at 250 ppm": "%"}, "values": [{"smiles": "ClC1=NSS2=C1N=C(c1ccc(Cl)c(Cl)c1)O2", "note": "(stereo not shown) [Compound 1]", "pest or weed control at 250 ppm": 60}, {"smiles": "Fc1ccccc1C1=NC2=S(O1)SN=C2Cl", "note": "(stereo not shown) [Compound 2]", "pest or weed control at 250 ppm": 93}, {"smiles": "ClC1=NSS2=C1N=C(c1ccc(Cl)cc1)O2", "note": "(stereo not shown) [Compound 3]", "pest or weed control at 250 ppm": 98}, {"smiles": "ClCC1=NC2=S(O1)SN=C2Cl", "note": "(stereo not shown) [Compound 5, 2-chloromethyl-3-oxa-3aλ^4,4-dithia-6chloro-1,5-diazapentalene]", "pest or weed control at 250 ppm": 81}, {"smiles": "ClC1=NSS2=C1N=C(c1ccccc1)O2", "note": "(stereo not shown) [Compound 6]", "pest or weed control at 250 ppm": 93}, {"smiles": "O=[N+]([O-])c1ccc(C2=NC3=S(O2)SN=C3Cl)cc1", "note": "(stereo not shown) [Compound 7]", "pest or weed control at 250 ppm": 90}, {"smiles": "ClC1=NSS2=C1N=C(CI)O2", "note": "(stereo not shown) [Compound 9, 2-iodomethyl-3-oxa-3aλ^4,4-dithia-6-chloro-1,5-diazapentalene]", "pest or weed control at 250 ppm": 62}, {"smiles": "ClC1=NSS2=C1N=C(CSc1ccc(Cl)cc1)O2", "note": "(stereo not shown) [Compound 10, 2-(4-chlorophenylthio-methyl)-3-oxa-3aλ^4,4-dithia-6-chloro-1,5-diazapentalene]", "pest or weed control at 250 ppm": 81}, {"smiles": "ClC1=NSS2=C1N=C(CSCc1ccc(Cl)cc1)O2", "note": "(stereo not shown) [Compound 11]", "pest or weed control at 250 ppm": 93}, {"smiles": "ClC1=NSS2=C1N=C(c1cccs1)O2", "note": "(stereo not shown) [Compound 12]", "pest or weed control at 250 ppm": 89}, {"smiles": "Oc1ccccc1C1=NC2=S(O1)SN=C2Cl", "note": "(stereo not shown) [Compound 13]", "pest or weed control at 250 ppm": 27}, {"smiles": "O=[N+]([O-])c1ccc(Cl)cc1C1=NC2=S(O1)SN=C2Cl", "note": "(stereo not shown) [Compound 17]", "pest or weed control at 250 ppm": 80}]}, {"tested_on": "Alternaria solani", "test": "Tomato Early Blight", "assay_type": "in vivo", "conditions": "288 h, 250 ppm spray, inoculated one day later, based on untreated check plants, read-out: Tomato Early blight % Control", "units": {"pest or weed control at 250 ppm": "%"}, "values": [{"smiles": "ClC1=NSS2=C1N=C(c1ccc(Cl)c(Cl)c1)O2", "note": "(stereo not shown) [Compound 1]", "pest or weed control at 250 ppm": 39}, {"smiles": "ClCC1=NC2=S(O1)SN=C2Cl", "note": "(stereo not shown) [Compound 5, 2-chloromethyl-3-oxa-3aλ^4,4-dithia-6chloro-1,5-diazapentalene]", "pest or weed control at 250 ppm": 73}, {"smiles": "O=[N+]([O-])c1ccc(C2=NC3=S(O2)SN=C3Cl)cc1", "note": "(stereo not shown) [Compound 7]", "pest or weed control at 250 ppm": 23}, {"smiles": "ClC1=NSS2=C1N=C(CI)O2", "note": "(stereo not shown) [Compound 9, 2-iodomethyl-3-oxa-3aλ^4,4-dithia-6-chloro-1,5-diazapentalene]", "pest or weed control at 250 ppm": 81}, {"smiles": "ClC1=NSS2=C1N=C(c1cccs1)O2", "note": "(stereo not shown) [Compound 12]", "pest or weed control at 250 ppm": 68}, {"smiles": "Oc1ccccc1C1=NC2=S(O1)SN=C2Cl", "note": "(stereo not shown) [Compound 13]", "pest or weed control at 250 ppm": 51}]}, {"tested_on": "Alternaria solani", "test": "Tomato Early Blight", "assay_type": "in vivo", "conditions": "288 h, read-out: Tomato Early blight % Control", "units": {"pest or weed control at 250 ppm": "%"}, "values": [{"smiles": "ClC1=NSS2=C1N=C(c1ccccc1)O2", "note": "(stereo not shown) [Compound 6]", "pest or weed control at 250 ppm": 75}]}, {"tested_on": "Septoria apii", "test": "not given", "conditions": "in vivo", "units": {"Celery Late Blight % Control": "%"}, "values": [{"smiles": "ClC1=NSS2=C1N=C(CI)O2", "note": "(stereo not shown) [Compound 9, 2-iodomethyl-3-oxa-3aλ^4,4-dithia-6-chloro-1,5-diazapentalene]", "Celery Late Blight % Control": 71}]}, {"tested_on": "Botrytis cinerea", "test": "Botrytis cinerea control (detached horsebean leaves)", "assay_type": "in vivo", "conditions": "3 to 5 days", "procedure": "Compounds of the invention were tested for Botrytis cinerea control using detached, well-developed primary leaves of a 4-6 week old horsebean plant. […] The leaves were allowed to dry while the filter paper was kept moist by adding water as required. The treated leaves were then inoculated with the spores of Botrytis cinerea fungus grown on potato. The plate was covered after inoculation and kept at 23.5° C. The filter-paper lining of the plate was kept saturated with water throughout the test. The rate of disease incidence was determined in 3 to 5 days, when the disease symptoms were fully evident on non-treated check leaves. […]", "units": {"Botrytis Cinerea, micrograms/cm^2 for 99% control of the fungus": "micrograms/cm^2"}, "values": [{"smiles": "Fc1ccccc1C1=NC2=S(O1)SN=C2Cl", "note": "(stereo not shown) [Compound 2]", "Botrytis Cinerea, micrograms/cm^2 for 99% control of the fungus": 1.6}, {"smiles": "ClC1=NSS2=C1N=C(c1ccc(Cl)cc1)O2", "note": "(stereo not shown) [Compound 3]", "Botrytis Cinerea, micrograms/cm^2 for 99% control of the fungus": 1.1}, {"smiles": "ClC1=NSS2=C1N=C(CI)O2", "note": "(stereo not shown) [Compound 9, 2-iodomethyl-3-oxa-3aλ^4,4-dithia-6-chloro-1,5-diazapentalene]", "Botrytis Cinerea, micrograms/cm^2 for 99% control of the fungus": 0.37}, {"smiles": "ClC1=NSS2=C1N=C(c1cccs1)O2", "note": "(stereo not shown) [Compound 12]", "Botrytis Cinerea, micrograms/cm^2 for 99% control of the fungus": 1.4}]}, {"tested_on": "Erysiphe polygoni", "test": "Powdery Mildew (bean seedlings)", "assay_type": "in vivo", "conditions": "240 h, 250 ppm spray on bean seedlings, about 10 days, relative to untreated check plants", "description": "The powdery mildew test was made using bean seedlings (var. Bountiful) with well-developed primary leaves. The pathogen was Erysiphe polygoni. The bean seedlings were sprayed with a 250 ppm solution of the test compound in an acetone-water mixture containing a nonionic emulsifier. The treated plants were inoculated one day after spray application of the test compound with the pathogen. […] The rate of infection on the leaves was made after about 10 days. The percent disease control provided by a given test compound was based on the disease reduction relative to untreated check plants.", "units": {"pest or weed control at 250 ppm": "%"}, "values": [{"smiles": "Fc1ccccc1C1=NC2=S(O1)SN=C2Cl", "note": "(stereo not shown) [Compound 2]", "pest or weed control at 250 ppm": 35}, {"smiles": "ClC1=NSS2=C1N=C(c1ccc(Cl)cc1)O2", "note": "(stereo not shown) [Compound 3]", "pest or weed control at 250 ppm": 76}, {"smiles": "ClC1=NSS2=C1N=C(c1ccccc1)O2", "note": "(stereo not shown) [Compound 6]", "pest or weed control at 250 ppm": 100}, {"smiles": "ClC1=NSS2=C1N=C(c1cccs1)O2", "note": "(stereo not shown) [Compound 12]", "pest or weed control at 250 ppm": 54}]}, {"tested_on": "Pythium ultimum", "test": "Mycelia Inhibition", "assay_type": "cell-based", "conditions": "mycelial inhibition, 25° C., 24 hours", "units": {"Pythium ultimum, micrograms/cm^2 for 99% control of the fungus": "micrograms/cm^2"}, "values": [{"smiles": "ClCC1=NC2=S(O1)SN=C2Cl", "note": "(stereo not shown) [Compound 5, 2-chloromethyl-3-oxa-3aλ^4,4-dithia-6chloro-1,5-diazapentalene]", "Pythium ultimum, micrograms/cm^2 for 99% control of the fungus": 0.12}, {"smiles": "ClC1=NSS2=C1N=C(CI)O2", "note": "(stereo not shown) [Compound 9, 2-iodomethyl-3-oxa-3aλ^4,4-dithia-6-chloro-1,5-diazapentalene]", "Pythium ultimum, micrograms/cm^2 for 99% control of the fungus": 0.12}, {"smiles": "ClC1=NSS2=C1N=C(CSc1ccc(Cl)cc1)O2", "note": "(stereo not shown) [Compound 10, 2-(4-chlorophenylthio-methyl)-3-oxa-3aλ^4,4-dithia-6-chloro-1,5-diazapentalene]", "Pythium ultimum, micrograms/cm^2 for 99% control of the fungus": "> 1.7"}, {"smiles": "ClC1=NSS2=C1N=C(CSCc1ccc(Cl)cc1)O2", "note": "(stereo not shown) [Compound 11]", "Pythium ultimum, micrograms/cm^2 for 99% control of the fungus": "> 1.7"}, {"smiles": "ClC1=NSS2=C1N=C(c1cccs1)O2", "note": "(stereo not shown) [Compound 12]", "Pythium ultimum, micrograms/cm^2 for 99% control of the fungus": "> 1.7"}, {"smiles": "Oc1ccccc1C1=NC2=S(O1)SN=C2Cl", "note": "(stereo not shown) [Compound 13]", "Pythium ultimum, micrograms/cm^2 for 99% control of the fungus": "> 1.7"}]}, {"tested_on": "Rhizoctonia solani", "test": "Mycelia Inhibition", "assay_type": "cell-based", "conditions": "mycelial inhibition, 25° C., 24 hours", "units": {"Rhizoctonia solani, micrograms/cm^2 for 99% control of the fungus": "micrograms/cm^2"}, "values": [{"smiles": "ClCC1=NC2=S(O1)SN=C2Cl", "note": "(stereo not shown) [Compound 5, 2-chloromethyl-3-oxa-3aλ^4,4-dithia-6chloro-1,5-diazapentalene]", "Rhizoctonia solani, micrograms/cm^2 for 99% control of the fungus": 0.38}, {"smiles": "ClC1=NSS2=C1N=C(CI)O2", "note": "(stereo not shown) [Compound 9, 2-iodomethyl-3-oxa-3aλ^4,4-dithia-6-chloro-1,5-diazapentalene]", "Rhizoctonia solani, micrograms/cm^2 for 99% control of the fungus": 0.6}, {"smiles": "ClC1=NSS2=C1N=C(CSc1ccc(Cl)cc1)O2", "note": "(stereo not shown) [Compound 10, 2-(4-chlorophenylthio-methyl)-3-oxa-3aλ^4,4-dithia-6-chloro-1,5-diazapentalene]", "Rhizoctonia solani, micrograms/cm^2 for 99% control of the fungus": 1.2}, {"smiles": "ClC1=NSS2=C1N=C(CSCc1ccc(Cl)cc1)O2", "note": "(stereo not shown) [Compound 11]", "Rhizoctonia solani, micrograms/cm^2 for 99% control of the fungus": 0.5}, {"smiles": "ClC1=NSS2=C1N=C(c1cccs1)O2", "note": "(stereo not shown) [Compound 12]", "Rhizoctonia solani, micrograms/cm^2 for 99% control of the fungus": 0.5}, {"smiles": "Oc1ccccc1C1=NC2=S(O1)SN=C2Cl", "note": "(stereo not shown) [Compound 13]", "Rhizoctonia solani, micrograms/cm^2 for 99% control of the fungus": 0.5}]}, {"tested_on": "Aspergillus niger", "test": "Mycelia Inhibition", "assay_type": "cell-based", "conditions": "mycelial inhibition, 25° C., 24 hours", "units": {"Aspergillus niger, micrograms/cm^2 for 99% control of the fungus": "micrograms/cm^2"}, "values": [{"smiles": "ClCC1=NC2=S(O1)SN=C2Cl", "note": "(stereo not shown) [Compound 5, 2-chloromethyl-3-oxa-3aλ^4,4-dithia-6chloro-1,5-diazapentalene]", "Aspergillus niger, micrograms/cm^2 for 99% control of the fungus": 1.1}, {"smiles": "ClC1=NSS2=C1N=C(CI)O2", "note": "(stereo not shown) [Compound 9, 2-iodomethyl-3-oxa-3aλ^4,4-dithia-6-chloro-1,5-diazapentalene]", "Aspergillus niger, micrograms/cm^2 for 99% control of the fungus": 0.52}, {"smiles": "ClC1=NSS2=C1N=C(CSc1ccc(Cl)cc1)O2", "note": "(stereo not shown) [Compound 10, 2-(4-chlorophenylthio-methyl)-3-oxa-3aλ^4,4-dithia-6-chloro-1,5-diazapentalene]", "Aspergillus niger, micrograms/cm^2 for 99% control of the fungus": 0.52}, {"smiles": "ClC1=NSS2=C1N=C(CSCc1ccc(Cl)cc1)O2", "note": "(stereo not shown) [Compound 11]", "Aspergillus niger, micrograms/cm^2 for 99% control of the fungus": 0.46}, {"smiles": "ClC1=NSS2=C1N=C(c1cccs1)O2", "note": "(stereo not shown) [Compound 12]", "Aspergillus niger, micrograms/cm^2 for 99% control of the fungus": 1.2}, {"smiles": "Oc1ccccc1C1=NC2=S(O1)SN=C2Cl", "note": "(stereo not shown) [Compound 13]", "Aspergillus niger, micrograms/cm^2 for 99% control of the fungus": 0.98}]}, {"tested_on": "Fusarium moniliforme", "test": "Mycelia Inhibition", "assay_type": "cell-based", "conditions": "mycelial inhibition, 25° C., 24 hours", "units": {"Fusarium moniliforme, micrograms/cm^2 for 99% control of the fungus": "micrograms/cm^2"}, "values": [{"smiles": "ClCC1=NC2=S(O1)SN=C2Cl", "note": "(stereo not shown) [Compound 5, 2-chloromethyl-3-oxa-3aλ^4,4-dithia-6chloro-1,5-diazapentalene]", "Fusarium moniliforme, micrograms/cm^2 for 99% control of the fungus": "> 1.7"}, {"smiles": "ClC1=NSS2=C1N=C(CI)O2", "note": "(stereo not shown) [Compound 9, 2-iodomethyl-3-oxa-3aλ^4,4-dithia-6-chloro-1,5-diazapentalene]", "Fusarium moniliforme, micrograms/cm^2 for 99% control of the fungus": 0.82}, {"smiles": "ClC1=NSS2=C1N=C(CSc1ccc(Cl)cc1)O2", "note": "(stereo not shown) [Compound 10, 2-(4-chlorophenylthio-methyl)-3-oxa-3aλ^4,4-dithia-6-chloro-1,5-diazapentalene]", "Fusarium moniliforme, micrograms/cm^2 for 99% control of the fungus": "> 1.7"}, {"smiles": "ClC1=NSS2=C1N=C(CSCc1ccc(Cl)cc1)O2", "note": "(stereo not shown) [Compound 11]", "Fusarium moniliforme, micrograms/cm^2 for 99% control of the fungus": "> 1.7"}, {"smiles": "ClC1=NSS2=C1N=C(c1cccs1)O2", "note": "(stereo not shown) [Compound 12]", "Fusarium moniliforme, micrograms/cm^2 for 99% control of the fungus": "> 1.7"}, {"smiles": "Oc1ccccc1C1=NC2=S(O1)SN=C2Cl", "note": "(stereo not shown) [Compound 13]", "Fusarium moniliforme, micrograms/cm^2 for 99% control of the fungus": "> 1.7"}]}]}
